The values below come from patent US20090270413A1, “DI-T-BUTYLPHENYL PIPERAZINES AS CALCIUM CHANNEL BLOCKERS” (priority 2008, published 2009).

As usually defined, the IC50 is the concentration that inhibits the measured activity by half.

The target in one test is T1, Human Cav2.2 channels (Homo sapiens, UniProt Q00975).
T1 construct: expressed in transfected cells
Briefly: Block of Cav2.2 (N-type) channels expressed in HEK293 cells. The class given is cell-based. The conditions noted are these: for inhibition at 10 µM / inhibition at 30 µM: HEK293; for inhibition at 10 µM: read-out: Cav 2.2 % Inh @ 10 μM; for inhibition at 30 µM: read-out: Cav 2.2 % Inh @ 30 μM; for IC50: read-out: Cav 2.2 IC50. The procedure, abridged: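 HEK293 cells co-expressing Cav2.2 with α2δ, β subunits and Kir2.3. Fluo-4 calcium influx: 30 min compound incubation at 25 °C in 4 mM (resting) or 12, 25 or 30 mM K+ (open/inactivated), then 70 mM K+ depolarisation. IonWorks HT barium-current patch clamp: 5 min compound, 2 Hz train of twenty 25 ms steps to +20 mV, first versus 20th pulse block.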

Test [1] has as its target T2, Cav3.1 (T-type channel alpha-1G) (Homo sapiens, UniProt O43497).
T2 construct: expressed in transfected cells; host or cells: HEK 293
As to the kind of experiment: T-type calcium channel voltage-clamp assay, Cav3.1. The class given is cell-based. The conditions noted are these: read-out: Cav 3.1 IC50. The protocol:
(§1) The T-type calcium channel blocking activity of the compounds of this invention may be readily determined using the methodology well known in the art described by Xia, et al., Assay and Drug Development Tech., 1 (5), 637-645 (2003).
(§2) In a typical experiment ion channel function from HEK 293 cells expressing the T-type channel alpha-1G, H, or I (CaV 3.1, 3.2, 3.3) is recorded to determine the activity of compounds in blocking the calcium current mediated by the T-type channel alpha-1G, H, or I (CaV 3.1, 3.2, 3.3). In this T-type calcium (Ca^2+) antagonist voltage-clamp assay calcium currents are elicited from the resting state of the human alpha-1G, H, or I (CaV 3.1, 3.2, 3.3) calcium channel as follows. Sequence information for T-type (Low-voltage activated) calcium channels are fully disclosed in e.g., U.S. Pat. No. 5,618,720, U.S. Pat. No. 5,686,241, U.S. Pat. No. 5,710,250,U.S. Pat. No. 5,726,035, U.S. Pat. No. 5,792,846, U.S. Pat. No. 5,846,757, U.S. Pat. No. 5,851,824, U.S. Pat. No. 5,874,236, U.S. Pat. No. 5,876,958, U.S. Pat. No. 6,013,474, U.S. Pat. No. 6,057,114, U.S. Pat. No. 6,096,514, WO 99/28342, and J. Neuroscience, 19 (6):1912-1921 (1999). Cells expressing the t-type channels were grown in H3D5 growth media which is comprised DMEM, 6% bovine calf serum (HYCLONE), 30 micromolar Verapamil, 200 microgram/ml Hygromycin B, 1× Penicillin/Streptomycin. Glass pipettes are pulled to a tip diameter of 1-2 micrometer on a pipette puller. The pipettes are filled with the intracellular solution and a chloridized silver wire is inserted along its length, which is then connected to the headstage of the voltage-clamp amplifier. Trypsinization buffer was 0.05% Trypsin, 0.53 mM EDTA. The extracellular recording solution consists of (mM): 130 mM NaCl, 4 mM KCl, 1 mM MgCl2, 2 mM CaCl2, 10 mM HEPES, 30 Glucose, pH 7.4. The internal solution consists of (mM): 135 mM CsMeSO4, 1 MgCl2, 10 CsCl, 5 EGTA, 10 HEPES, pH 7.4, or 135 mM CsCl, 2 MgCl2, 3 MgATP, 2 Na2ATP, 1 Na2GTP, 5 EGTA, 10 HEPES, pH 7.4. Upon insertion of the pipette tip into the bath, the series resistance is noted (acceptable range is between 1-4 megaohm). The junction potential between the pipette and bath solutions is zeroed on the amplifier. The cell is then patched, the patch broken, and, after compensation for series resistance (>=80%), the voltage protocol is applied while recording the whole cell Ca2+ current response. Voltage protocols: (1) −80 mV holding potential every 20 seconds pulse to −20 mV for 40 msec duration; the effectiveness of the drug in inhibiting the current mediated by the channel is measured directly from measuring the reduction in peak current amplitude initiated by the voltage shift from −80 mV to −20 mV; (2). −100 mV holding potential every 15 seconds pulse to −20 mV for 40 msec duration; the effectiveness of the drug in inhibiting the current mediated by the channel is measured directly from measuring the reduction in peak current amplitude initiated by the shift in potential from −100 mV to […]. The difference in block at the two holding potentials was used to determine the effect of drug at differing levels of inactivation induced by the level of resting state potential of the cells. After obtaining control baseline calcium currents, extracellular solutions containing increasing concentrations of a test compound are washed on. Once steady state inhibition at a given compound concentration is reached, a higher concentration of compound is applied. % inhibition of the peak inward control Ca2+ current during the depolarizing step to −20 mV is plotted as a function of compound concentration.

Test [2] addresses T3, Cav3.2 (T-type channel alpha-1H) (Homo sapiens, UniProt O95180).
T3 construct: expressed in transfected cells; host or cells: HEK 293
As to the kind of experiment: T-type calcium channel voltage-clamp assay, Cav3.2. The class given is cell-based. The conditions noted are these: read-out: Cav 3.2 IC50. The protocol: as §1, §2

Test [3] relates to T-type over L-type channels. The conditions noted are these: cited from earlier work.

T3 sequence (O95180 whole entry): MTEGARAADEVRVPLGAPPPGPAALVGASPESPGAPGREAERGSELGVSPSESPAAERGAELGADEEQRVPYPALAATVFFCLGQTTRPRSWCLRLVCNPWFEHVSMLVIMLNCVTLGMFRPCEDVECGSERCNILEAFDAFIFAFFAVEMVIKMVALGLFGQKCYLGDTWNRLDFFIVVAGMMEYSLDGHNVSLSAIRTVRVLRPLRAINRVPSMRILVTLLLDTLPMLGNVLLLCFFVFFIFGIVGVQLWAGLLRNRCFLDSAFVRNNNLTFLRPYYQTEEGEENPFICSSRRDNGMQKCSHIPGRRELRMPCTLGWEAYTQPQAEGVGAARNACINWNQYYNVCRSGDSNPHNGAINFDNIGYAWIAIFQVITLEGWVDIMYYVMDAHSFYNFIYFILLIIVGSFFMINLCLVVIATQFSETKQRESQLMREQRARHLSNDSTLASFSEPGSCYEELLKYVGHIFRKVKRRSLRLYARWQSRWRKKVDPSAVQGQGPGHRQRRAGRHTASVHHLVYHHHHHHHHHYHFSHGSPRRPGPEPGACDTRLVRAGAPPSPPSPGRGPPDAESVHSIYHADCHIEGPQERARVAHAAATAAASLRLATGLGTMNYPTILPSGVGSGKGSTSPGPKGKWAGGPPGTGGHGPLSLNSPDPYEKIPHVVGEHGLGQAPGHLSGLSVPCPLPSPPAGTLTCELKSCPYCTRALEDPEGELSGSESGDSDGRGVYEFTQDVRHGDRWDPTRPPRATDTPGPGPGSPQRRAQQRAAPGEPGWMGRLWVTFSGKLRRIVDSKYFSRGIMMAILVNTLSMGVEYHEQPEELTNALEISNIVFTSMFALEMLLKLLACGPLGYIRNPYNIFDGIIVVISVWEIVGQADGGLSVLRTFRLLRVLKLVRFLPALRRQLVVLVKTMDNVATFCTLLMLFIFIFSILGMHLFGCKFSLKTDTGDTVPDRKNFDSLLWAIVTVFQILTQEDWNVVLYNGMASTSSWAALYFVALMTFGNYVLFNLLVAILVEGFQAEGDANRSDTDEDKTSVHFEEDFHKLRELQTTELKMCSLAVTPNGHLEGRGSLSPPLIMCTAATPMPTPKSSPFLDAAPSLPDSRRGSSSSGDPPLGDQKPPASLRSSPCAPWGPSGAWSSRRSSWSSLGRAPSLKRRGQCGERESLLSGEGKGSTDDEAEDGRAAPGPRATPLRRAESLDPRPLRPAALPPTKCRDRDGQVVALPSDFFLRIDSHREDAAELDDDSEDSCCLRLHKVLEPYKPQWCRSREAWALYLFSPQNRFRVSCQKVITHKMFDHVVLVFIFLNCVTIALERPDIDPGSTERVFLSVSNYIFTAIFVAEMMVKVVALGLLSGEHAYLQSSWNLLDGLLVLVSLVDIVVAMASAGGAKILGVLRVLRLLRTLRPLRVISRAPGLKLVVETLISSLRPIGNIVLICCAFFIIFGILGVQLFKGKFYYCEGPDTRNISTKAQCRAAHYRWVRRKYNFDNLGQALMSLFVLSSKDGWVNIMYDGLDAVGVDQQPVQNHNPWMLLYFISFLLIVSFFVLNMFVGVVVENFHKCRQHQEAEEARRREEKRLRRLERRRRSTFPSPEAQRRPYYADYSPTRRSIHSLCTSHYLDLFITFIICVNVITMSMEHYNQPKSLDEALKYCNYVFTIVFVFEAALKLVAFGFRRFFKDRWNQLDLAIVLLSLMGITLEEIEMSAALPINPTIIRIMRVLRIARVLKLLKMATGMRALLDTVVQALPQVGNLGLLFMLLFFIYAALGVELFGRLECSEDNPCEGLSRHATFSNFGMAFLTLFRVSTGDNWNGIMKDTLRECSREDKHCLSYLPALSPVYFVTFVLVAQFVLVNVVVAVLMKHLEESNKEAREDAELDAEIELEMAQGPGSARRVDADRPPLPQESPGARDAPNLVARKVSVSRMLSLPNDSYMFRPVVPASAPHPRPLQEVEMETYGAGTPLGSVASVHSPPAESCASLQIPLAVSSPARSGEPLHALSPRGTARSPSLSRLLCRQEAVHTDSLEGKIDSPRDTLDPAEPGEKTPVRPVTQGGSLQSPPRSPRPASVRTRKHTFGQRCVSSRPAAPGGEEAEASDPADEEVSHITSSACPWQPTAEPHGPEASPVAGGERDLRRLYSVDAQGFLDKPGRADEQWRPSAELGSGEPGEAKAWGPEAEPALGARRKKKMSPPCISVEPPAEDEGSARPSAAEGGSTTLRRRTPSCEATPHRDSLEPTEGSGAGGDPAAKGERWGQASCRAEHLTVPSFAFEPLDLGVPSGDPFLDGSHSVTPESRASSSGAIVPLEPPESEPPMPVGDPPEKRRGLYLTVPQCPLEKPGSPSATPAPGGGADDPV
T2 sequence (O43497 whole entry): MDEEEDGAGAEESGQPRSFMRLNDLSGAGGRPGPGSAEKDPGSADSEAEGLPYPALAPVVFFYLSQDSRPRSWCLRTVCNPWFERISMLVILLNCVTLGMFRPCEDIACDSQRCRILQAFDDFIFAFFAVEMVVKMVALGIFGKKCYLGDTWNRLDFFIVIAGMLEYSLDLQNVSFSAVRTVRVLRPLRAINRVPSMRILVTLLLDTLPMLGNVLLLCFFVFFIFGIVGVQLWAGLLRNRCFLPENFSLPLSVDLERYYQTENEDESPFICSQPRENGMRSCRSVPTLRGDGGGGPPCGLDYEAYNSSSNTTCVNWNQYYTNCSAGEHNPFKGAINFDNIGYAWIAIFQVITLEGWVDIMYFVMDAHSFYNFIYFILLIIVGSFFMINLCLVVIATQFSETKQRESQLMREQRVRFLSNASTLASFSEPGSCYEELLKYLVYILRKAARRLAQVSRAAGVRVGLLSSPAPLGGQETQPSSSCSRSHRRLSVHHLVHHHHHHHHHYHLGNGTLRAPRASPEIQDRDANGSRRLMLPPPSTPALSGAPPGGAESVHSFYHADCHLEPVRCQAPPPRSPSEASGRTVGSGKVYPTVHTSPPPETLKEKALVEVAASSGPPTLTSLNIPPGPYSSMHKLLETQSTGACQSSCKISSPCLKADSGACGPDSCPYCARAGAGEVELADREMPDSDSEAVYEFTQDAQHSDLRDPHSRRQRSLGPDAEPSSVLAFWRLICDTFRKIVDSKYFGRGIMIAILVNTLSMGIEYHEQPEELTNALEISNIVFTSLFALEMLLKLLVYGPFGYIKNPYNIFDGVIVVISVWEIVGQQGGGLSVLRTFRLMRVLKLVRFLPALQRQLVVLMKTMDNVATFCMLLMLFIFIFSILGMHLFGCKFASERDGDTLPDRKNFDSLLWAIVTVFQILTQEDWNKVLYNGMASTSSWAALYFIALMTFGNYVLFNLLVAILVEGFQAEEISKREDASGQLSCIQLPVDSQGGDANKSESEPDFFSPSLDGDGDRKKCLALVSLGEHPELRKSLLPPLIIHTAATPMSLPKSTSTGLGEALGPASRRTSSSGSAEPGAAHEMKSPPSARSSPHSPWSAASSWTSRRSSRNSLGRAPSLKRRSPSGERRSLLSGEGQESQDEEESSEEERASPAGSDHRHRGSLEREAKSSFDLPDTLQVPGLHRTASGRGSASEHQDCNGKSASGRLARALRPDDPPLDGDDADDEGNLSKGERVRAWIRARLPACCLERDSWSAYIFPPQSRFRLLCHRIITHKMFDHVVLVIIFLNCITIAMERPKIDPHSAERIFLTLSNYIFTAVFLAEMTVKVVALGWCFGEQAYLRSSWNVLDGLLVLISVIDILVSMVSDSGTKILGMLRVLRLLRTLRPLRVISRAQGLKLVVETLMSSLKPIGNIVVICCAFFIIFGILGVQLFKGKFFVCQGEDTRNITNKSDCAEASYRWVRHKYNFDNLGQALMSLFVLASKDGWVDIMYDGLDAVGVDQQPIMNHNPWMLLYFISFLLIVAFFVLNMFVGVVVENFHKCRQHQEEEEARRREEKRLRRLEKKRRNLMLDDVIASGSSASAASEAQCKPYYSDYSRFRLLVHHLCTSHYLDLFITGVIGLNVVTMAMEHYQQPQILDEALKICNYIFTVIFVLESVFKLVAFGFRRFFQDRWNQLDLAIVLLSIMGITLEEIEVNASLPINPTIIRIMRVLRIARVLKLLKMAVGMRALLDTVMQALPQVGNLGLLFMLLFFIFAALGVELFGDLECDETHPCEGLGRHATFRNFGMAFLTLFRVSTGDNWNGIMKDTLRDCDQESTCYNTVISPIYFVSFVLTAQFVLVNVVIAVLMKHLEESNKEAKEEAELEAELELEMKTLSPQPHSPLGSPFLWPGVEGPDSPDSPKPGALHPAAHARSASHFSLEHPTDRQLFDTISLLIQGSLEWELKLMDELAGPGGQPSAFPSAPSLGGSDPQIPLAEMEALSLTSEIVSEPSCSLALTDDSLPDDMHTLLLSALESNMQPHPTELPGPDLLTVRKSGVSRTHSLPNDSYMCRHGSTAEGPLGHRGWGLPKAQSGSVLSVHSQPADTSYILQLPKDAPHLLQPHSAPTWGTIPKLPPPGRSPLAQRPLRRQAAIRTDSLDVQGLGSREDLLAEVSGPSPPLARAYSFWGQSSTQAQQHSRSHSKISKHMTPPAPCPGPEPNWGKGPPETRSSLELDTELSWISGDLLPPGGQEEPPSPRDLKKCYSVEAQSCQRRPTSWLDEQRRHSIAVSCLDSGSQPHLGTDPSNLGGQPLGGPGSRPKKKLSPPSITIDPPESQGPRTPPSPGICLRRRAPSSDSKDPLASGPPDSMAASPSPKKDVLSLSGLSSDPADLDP

In the case of `Cc1nc(C(=O)N2CCN(c3cc(C(C)(C)C)cc(C(C)(C)C)c3)CC2)c(C(F)(F)F)o1` [Compound 37, (4-(3,5-di-tert-butylphenyl)piperazin-1-yl)(2-methyl-5-(trifluoromethyl)oxazol-4-yl)methanone], on Human Cav2.2 channels, the inhibition at 10 µM was determined as 94%. The inhibition at 30 µM at Human Cav2.2 channels turned out to be 101%. The IC50 on Human Cav2.2 channels stood at 550 nM; in test [1] it was 2040 nM; in test [2], 2290 nM.

As to `CCOc1ncccc1C(=O)N1CCN(c2cc(C(C)(C)C)cc(C(C)(C)C)c2)CC1` [Compound 38, (4-(3,5-di-tert-butylphenyl)piperazin-1-yl)(2-ethoxypyridin-3-yl)methanone], the inhibition at 10 µM at Human Cav2.2 channels turned out to be 107%. Also, the inhibition at 30 µM at Human Cav2.2 channels came to 98%. The IC50 on Human Cav2.2 channels is 850 nM; in test [1] it was 1490 nM; in test [2], 2230 nM.

With `Cc1nc(C(F)(F)F)c(C(=O)N2CCN(c3cc(C(C)(C)C)cc(C(C)(C)C)c3)CC2)s1` [Compound 41, (4-(3,5-di-tert-butylphenyl)piperazin-1-yl)(2-methyl-4-(trifluoromethyl)thiazol-5-yl)methanone], at Human Cav2.2 channels, the inhibition at 10 µM stood at 102%. Besides, the inhibition at 30 µM on Human Cav2.2 channels came to 107%. In addition, the IC50 at Human Cav2.2 channels was found to be 830 nM; in test [1], 1510 nM; in test [2], 1410 nM.

Regarding `CCSc1ncccc1C(=O)N1CCN(c2cc(C(C)(C)C)cc(C(C)(C)C)c2)CC1` [Compound 45, (4-(3,5-di-tert-butylphenyl)piperazin-1-yl)(2-(ethylthio)pyridin-3-yl)methanone], on Human Cav2.2 channels, the inhibition at 10 µM was 97%, the inhibition at 30 µM was 101% and the IC50 was 1080 nM. Also, the IC50 in test [1] was found to be 960 nM. For the same compound, the IC50 in test [2] turned out to be 1800 nM.

On to `CC(C)(C)c1cc(N2CCN(C(=O)c3ccc(OCC(F)(F)F)nc3)CC2)cc(C(C)(C)C)c1` [Compound 47, (4-(3,5-di-tert-butylphenyol)piperazin-1-yl)(6-(2,2,2-trifluoroethoxy)pyridin-3-yl)methanone], for which the inhibition at 10 µM on Human Cav2.2 channels came to 101%. For the same compound, the inhibition at 30 µM at Human Cav2.2 channels was determined as 104%. The figures for the IC50 (at Human Cav2.2 channels; in test [1]; in test [2]) were 1480 nM, 490 nM and 800 nM, respectively.

For the compound `CC(C)(C)c1cc(N2CCN(C(=O)c3ccccc3)CC2)cc(C(C)(C)C)c1` [Compound 48, (4-(3,5-di-tert-butylphenyl)piperazin-1-yl)(phenyl)methanone], at Human Cav2.2 channels, the inhibition at 10 µM is 103%, the inhibition at 30 µM stood at 103% and the IC50 turned out to be 1480 nM. Also, the IC50 in test [1] is 370 nM. Besides, in test [2], the IC50 is 610 nM.

Consider `Cc1cccc(C(=O)N2CCN(c3cc(C(C)(C)C)cc(C(C)(C)C)c3)CC2)n1` [Compound 49, (4-(3,5-di-tert-butylphenyl)piperazin-1-yl)(6-methylpyridin-2-yl)methanone], for which, on Human Cav2.2 channels, the inhibition at 10 µM worked out at 102%, the inhibition at 30 µM stood at 105% and the IC50 was 1660 nM. In test [1], the IC50 was determined as 1520 nM. Also, in test [2], the IC50 stood at 1880 nM.

Take `COCC(=O)O[C@]1(CCN(C)CCCc2nc3ccccc3[nH]2)CCc2cc(F)ccc2[C@@H]1C(C)C` [Mibefradil]: in test [3], the “selective for T-type over L-type channels” value is 10-30 fold.
